According to patent US20220401951A1, “RAPID CELL CULTURE TEST DEVICE INCLUDING ISLAND STRUCTURES” (QuantaMatrix Inc., priority 2020, published 2022):

Tested on: P. aeruginosa ATCC 27853
Assay: antibiotic susceptibility test in the cell culture test device (solid thin film, microscopic observation)
Format: cell-based
Details: device of Example 1
Experimental: Colistin as an antibiotic was loaded into the island structure through the third inlet portion of each of the well units. The antibiotic was loaded in an amount of 10 μl, dried, and fixed in the shape illustrated in (b) of FIG. 5.
Thereafter, 10 μl of a mixture of agarose and a bacterial solution (P. aeruginosa ATCC 27853) as a first fluid was dispensed into the first accommodation space through the first inlet portion. After the introduction of the first fluid into the first accommodation space was completed, 100 μl of a culture medium as a second fluid was introduced into the second accommodation space through the second inlet portion.
In each of Examples 1-8 and Comparative Examples 1-4, 10 cell culture test devices having the same structure were manufactured. A determination was made as to whether the solid thin films of the first fluid were defective. The susceptibilities to the antibiotic at four selected points of each first accommodation space were evaluated. The four points (a, b, c, and d) were at right angles to the first inlet portion. […] The solid thin film in the first accommodation space was visually observed to determine whether the solid thin film was defective.
Particularly, the effect of the antibiotic was pronounced at ≥1 mg/ml.

Colistin
response of bacteria in solid thin film to colistin (after 6 h, 0 to 2 mg/ml colistin (FIG. 10)): Clear responses were observed
colistin concentration at which the effect of the antibiotic was pronounced (observation after 6 h, concentrations tested 0, 0.12, 0.25, 0.5, 1, 2 mg/ml (FIG. 10)): ≥ 1 mg/mL
